Source: ChEMBL document CHEMBL1201862, “PubChem BioAssay data set” (2004)
Activity calls are given as the source filed them.

Assays:
[1] = A cytotoxicity screen of small molecule inhibitors of the PhoP region in Salmonella typhi identified in the primary screen. [Related pubchem assays: 1850, 1864, 1985 ]; type: functional
Exodeoxyribonuclease V = target: T1, Exodeoxyribonuclease V (Escherichia coli (strain K12), UniProt P04993+P07648+P08394); test: E. coli RecBCD inhibitors, dose response, counter-screen for AddAB inhibitor project, absorbance, V66 E. coli, mutant T4 phage (AID 492957); type: functional, cell-based, Escherichia coli str. K-12 substr. MG1655
T1 sequence (P04993 whole entry): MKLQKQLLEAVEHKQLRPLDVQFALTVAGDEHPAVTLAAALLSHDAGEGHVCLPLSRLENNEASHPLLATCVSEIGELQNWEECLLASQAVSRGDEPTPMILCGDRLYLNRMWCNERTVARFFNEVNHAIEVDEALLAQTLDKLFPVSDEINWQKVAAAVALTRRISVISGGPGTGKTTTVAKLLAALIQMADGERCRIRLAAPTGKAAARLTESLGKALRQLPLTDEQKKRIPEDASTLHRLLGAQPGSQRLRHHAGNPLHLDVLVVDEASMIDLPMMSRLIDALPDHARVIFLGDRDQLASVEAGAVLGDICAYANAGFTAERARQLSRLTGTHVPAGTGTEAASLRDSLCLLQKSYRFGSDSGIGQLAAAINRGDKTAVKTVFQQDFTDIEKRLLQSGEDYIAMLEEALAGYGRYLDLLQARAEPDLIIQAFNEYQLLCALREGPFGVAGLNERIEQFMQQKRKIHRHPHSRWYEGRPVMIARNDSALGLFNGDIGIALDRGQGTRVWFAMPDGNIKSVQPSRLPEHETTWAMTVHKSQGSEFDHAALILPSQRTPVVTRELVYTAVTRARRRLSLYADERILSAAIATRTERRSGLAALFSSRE
T1 sequence (P07648 whole entry): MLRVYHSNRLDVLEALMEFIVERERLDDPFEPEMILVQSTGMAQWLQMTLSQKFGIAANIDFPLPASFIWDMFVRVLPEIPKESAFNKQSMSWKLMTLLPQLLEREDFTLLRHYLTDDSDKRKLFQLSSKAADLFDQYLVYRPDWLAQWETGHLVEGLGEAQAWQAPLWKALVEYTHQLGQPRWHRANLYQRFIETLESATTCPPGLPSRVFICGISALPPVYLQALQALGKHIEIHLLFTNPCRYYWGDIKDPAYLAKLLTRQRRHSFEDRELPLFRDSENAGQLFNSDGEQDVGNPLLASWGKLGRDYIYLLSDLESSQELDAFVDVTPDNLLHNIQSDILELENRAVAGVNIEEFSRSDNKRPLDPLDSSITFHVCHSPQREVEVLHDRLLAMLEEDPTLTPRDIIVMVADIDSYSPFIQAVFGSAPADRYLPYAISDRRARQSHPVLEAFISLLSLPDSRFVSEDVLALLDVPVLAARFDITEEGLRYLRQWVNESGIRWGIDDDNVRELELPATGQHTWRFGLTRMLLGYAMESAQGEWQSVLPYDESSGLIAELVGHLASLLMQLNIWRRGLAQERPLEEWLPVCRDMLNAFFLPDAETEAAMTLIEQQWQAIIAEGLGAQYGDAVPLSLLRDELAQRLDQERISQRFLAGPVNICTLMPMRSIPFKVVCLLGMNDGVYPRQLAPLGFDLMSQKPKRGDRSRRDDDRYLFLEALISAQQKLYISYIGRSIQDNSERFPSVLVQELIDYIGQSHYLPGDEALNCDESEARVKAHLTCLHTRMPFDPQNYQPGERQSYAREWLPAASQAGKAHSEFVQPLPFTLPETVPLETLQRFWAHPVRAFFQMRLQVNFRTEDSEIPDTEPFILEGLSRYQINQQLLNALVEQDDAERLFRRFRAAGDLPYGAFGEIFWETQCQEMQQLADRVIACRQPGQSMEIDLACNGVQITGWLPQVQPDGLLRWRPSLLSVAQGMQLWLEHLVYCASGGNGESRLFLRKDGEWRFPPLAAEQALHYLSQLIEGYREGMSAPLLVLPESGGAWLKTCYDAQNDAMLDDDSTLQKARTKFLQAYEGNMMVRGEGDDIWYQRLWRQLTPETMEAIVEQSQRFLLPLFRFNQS
T1 sequence (P08394 whole entry): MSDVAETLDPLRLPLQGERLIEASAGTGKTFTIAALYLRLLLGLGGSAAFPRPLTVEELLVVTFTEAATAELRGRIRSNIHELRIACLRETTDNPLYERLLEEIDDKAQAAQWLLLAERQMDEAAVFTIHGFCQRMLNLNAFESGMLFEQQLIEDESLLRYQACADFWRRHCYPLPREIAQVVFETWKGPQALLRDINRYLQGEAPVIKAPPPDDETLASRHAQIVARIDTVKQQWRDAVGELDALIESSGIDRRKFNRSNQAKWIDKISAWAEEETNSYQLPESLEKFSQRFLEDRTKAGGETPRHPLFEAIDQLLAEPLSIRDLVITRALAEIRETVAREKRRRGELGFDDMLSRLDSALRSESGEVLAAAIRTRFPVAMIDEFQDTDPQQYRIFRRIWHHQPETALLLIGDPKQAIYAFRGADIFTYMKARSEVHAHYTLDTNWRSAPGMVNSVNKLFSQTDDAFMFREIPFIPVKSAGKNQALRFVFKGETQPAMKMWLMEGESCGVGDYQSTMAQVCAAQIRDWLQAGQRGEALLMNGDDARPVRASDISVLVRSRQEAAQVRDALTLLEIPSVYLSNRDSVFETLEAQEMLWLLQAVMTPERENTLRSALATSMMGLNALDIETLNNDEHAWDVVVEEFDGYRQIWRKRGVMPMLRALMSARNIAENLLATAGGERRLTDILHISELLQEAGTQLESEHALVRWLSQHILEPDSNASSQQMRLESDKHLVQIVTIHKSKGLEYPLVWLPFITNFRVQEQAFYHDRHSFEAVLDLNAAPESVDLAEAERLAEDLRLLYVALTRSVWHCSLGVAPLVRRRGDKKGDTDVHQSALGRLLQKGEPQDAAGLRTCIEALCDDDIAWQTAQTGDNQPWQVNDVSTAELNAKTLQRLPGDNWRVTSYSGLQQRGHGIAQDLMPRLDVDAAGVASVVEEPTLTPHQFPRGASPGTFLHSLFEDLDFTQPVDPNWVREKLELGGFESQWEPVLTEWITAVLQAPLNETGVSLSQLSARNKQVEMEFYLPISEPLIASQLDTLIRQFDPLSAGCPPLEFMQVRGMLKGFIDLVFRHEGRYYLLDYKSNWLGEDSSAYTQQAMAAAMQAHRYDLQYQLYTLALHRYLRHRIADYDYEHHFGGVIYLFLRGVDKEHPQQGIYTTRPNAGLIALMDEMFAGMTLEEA

SUMO-activating enzyme [2] = target: T2, SUMO-activating enzyme (Homo sapiens, UniProt Q9UBT2); test: inhibitors of in vitro SUMOylation cascade, primary screen, biochemical, HTRF, uHTS (AID 2006); type: protein-complex assay
Albumin = Albumin (Bos taurus, UniProt P02769); test: Counterscreen for inhibitors of T-cell receptor (TCR)-CD3 interaction: Fluorescence-based biochemical high throughput dose response assay to identify inhibitors of T-cell receptor (TCR)-CD3 interaction using a TAMRA-labeled BSA probe.; type: functional
SUMO-activating enzyme [3] = target: T2, SUMO-activating enzyme; test: SUMOylation inhibitor hit validation, confirmation, SUMOylation inhibitor project, biochemical, AlphaScreen (AID 2018); type: functional
[4] = Counterscreen for AddAB inhibitors: absorbance-based bacterial cell-based high throughput dose response assay for inhibitors of bacterial viability. [Related pubchem assays (depositor defined):AID435030, AID449728, AID449731, AID488942, AID488955, AID488956]; type: functional
Coagulation factor XII = target: T3, Coagulation factor XII (Homo sapiens, UniProt P00748); type: functional;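 note: activated factor XIIa alpha cleaving a fluorogenic AMC peptide substrate; inhibitor potency from loss of enzyme activity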
T3 sequence (P00748 whole entry): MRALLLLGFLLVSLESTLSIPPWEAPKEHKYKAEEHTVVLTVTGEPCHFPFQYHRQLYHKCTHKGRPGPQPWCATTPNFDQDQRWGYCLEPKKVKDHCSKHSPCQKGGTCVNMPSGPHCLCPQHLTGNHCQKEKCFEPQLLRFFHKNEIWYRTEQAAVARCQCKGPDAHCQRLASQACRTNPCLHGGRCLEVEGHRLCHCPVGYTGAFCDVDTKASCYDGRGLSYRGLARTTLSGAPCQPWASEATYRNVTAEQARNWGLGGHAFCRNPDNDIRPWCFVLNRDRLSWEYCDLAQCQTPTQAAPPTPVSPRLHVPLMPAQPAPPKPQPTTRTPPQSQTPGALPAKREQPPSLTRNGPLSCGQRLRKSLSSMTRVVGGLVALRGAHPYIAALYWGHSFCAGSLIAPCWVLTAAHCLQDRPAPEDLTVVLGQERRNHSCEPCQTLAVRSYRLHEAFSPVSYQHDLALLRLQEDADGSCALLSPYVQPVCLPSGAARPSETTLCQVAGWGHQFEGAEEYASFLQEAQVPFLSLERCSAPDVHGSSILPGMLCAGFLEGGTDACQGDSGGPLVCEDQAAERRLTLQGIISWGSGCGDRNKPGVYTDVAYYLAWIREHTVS

[5] = growth suppression of beta-catenin-knockout colon cells, dose response, cell-based, HCT116, human colon tumor (AID 1045); type: functional;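 note: HCT116 colon tumor cells with beta catenin knocked out; cells exposed to compound for 60 hours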
Prothrombin = Prothrombin (Homo sapiens, UniProt P00734); test: Thrombin 1536 HTS Dose Response Confirmation. [Related pubchem assays: 1046 (Thrombin 1536 HTS; hits were confirmed in this assay)]; type: functional
[6] = control 3'UTR Renilla luciferase suppression, dose response, counter-screen for Shn3 inhibitor project, cell-based, Clone20-Shn3RL, cherry-picked (AID 624133); type: functional
[7] = target: T4, Heat shock factor protein 1 (Mus musculus, UniProt P38532); test: inhibition of MG132-induced HSE-luciferase signal, confirmation, cell-based, NIH3T3, luminescence, dose retest (AID 2382); type: functional;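 note: NIH3T3 fibroblasts with HSF1-driven luciferase reporter stressed by proteasome inhibitor MG132; luminescence from HSF1-driven luciferase expression after 8 hours of MG132 stress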
T4 sequence (P38532 whole entry): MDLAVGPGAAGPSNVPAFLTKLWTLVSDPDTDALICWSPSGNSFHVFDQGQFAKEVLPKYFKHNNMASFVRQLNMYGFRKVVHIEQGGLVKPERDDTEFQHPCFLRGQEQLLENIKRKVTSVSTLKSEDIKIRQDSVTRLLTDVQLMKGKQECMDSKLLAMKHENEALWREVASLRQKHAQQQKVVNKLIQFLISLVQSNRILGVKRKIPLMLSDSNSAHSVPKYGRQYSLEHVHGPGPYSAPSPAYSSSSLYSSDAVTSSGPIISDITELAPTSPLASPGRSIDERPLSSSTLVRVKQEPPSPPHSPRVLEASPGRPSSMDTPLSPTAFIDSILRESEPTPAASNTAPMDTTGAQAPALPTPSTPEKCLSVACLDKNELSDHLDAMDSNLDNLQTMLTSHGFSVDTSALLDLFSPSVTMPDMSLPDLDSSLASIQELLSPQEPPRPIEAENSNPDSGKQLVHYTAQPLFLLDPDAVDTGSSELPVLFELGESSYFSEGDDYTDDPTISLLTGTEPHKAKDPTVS

[8] = A Cell Based Secondary Assay To Explore Cytotoxicity of Compounds that Sensitize Mycobacterium Tuberculosis to Beta-Lactam Antibiotics.; type: functional
[9] = HepG2 cell cytotoxicity, dose response, cytotoxicity control for Shn3 inhibitor project, CellTiter-Glo, cherry-picked (AID 624134); type: functional, cell-based
[10] = Shn3 3'UTR reporter inhibitors, dose response, cell-based, Clone20 osteoblasts, firefly luciferase, cherry-picked (AID 624132); type: functional;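 note: firefly luciferase luminescence from reporter carrying the Shn3 3'UTR in osteoblasts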
INS1 = test: beta cell apoptosis inhibitors, cytokine rescue, dose response, luminescence, retest (AID 449756); type: functional, cell-based; conditions: Rattus norvegicus;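 note: cell death triggered by IL-1 beta plus TNF-alpha plus IFN-gamma mixture; protective hits raise ATP signal compared with cytokine alone wells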
[11] = cytotoxicity in HEK-293T cells, dose response, cytotoxicity control for TCR NF-kB inhibitor project, luminescence, T-cell screen hits (AID 489026); type: functional, cell-based;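 note: cells exposed to compound about 14 hours before the viability readout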

T2 sequence (Q9UBE0 whole entry): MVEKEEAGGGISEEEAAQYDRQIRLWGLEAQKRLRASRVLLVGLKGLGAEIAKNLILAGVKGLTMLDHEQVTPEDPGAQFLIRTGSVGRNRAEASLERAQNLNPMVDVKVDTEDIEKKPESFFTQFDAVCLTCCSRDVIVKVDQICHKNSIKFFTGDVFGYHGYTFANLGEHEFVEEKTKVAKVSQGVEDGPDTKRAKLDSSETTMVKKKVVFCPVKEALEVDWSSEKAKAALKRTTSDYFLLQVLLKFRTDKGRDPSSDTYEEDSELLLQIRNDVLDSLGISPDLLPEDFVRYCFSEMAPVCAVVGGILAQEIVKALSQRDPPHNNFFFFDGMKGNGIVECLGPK
T2 sequence (Q9UBT2 whole entry): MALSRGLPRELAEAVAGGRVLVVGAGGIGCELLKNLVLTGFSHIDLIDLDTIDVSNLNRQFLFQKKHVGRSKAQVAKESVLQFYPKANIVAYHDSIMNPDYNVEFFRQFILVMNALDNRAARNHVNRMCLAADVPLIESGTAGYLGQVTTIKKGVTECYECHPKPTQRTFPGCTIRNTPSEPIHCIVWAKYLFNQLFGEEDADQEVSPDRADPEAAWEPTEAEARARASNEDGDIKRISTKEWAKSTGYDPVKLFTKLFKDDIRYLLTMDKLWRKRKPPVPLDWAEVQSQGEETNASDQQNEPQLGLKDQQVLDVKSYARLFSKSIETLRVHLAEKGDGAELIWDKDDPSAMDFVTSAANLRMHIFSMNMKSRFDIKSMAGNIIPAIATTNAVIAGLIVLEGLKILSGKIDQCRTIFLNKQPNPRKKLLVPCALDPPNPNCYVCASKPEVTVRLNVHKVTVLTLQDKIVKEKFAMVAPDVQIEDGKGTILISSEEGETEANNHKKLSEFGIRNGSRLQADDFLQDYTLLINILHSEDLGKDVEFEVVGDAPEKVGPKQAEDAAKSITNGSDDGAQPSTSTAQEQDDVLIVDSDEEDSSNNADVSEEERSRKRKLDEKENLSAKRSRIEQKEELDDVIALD
Albumin, sequence (P02769 whole entry): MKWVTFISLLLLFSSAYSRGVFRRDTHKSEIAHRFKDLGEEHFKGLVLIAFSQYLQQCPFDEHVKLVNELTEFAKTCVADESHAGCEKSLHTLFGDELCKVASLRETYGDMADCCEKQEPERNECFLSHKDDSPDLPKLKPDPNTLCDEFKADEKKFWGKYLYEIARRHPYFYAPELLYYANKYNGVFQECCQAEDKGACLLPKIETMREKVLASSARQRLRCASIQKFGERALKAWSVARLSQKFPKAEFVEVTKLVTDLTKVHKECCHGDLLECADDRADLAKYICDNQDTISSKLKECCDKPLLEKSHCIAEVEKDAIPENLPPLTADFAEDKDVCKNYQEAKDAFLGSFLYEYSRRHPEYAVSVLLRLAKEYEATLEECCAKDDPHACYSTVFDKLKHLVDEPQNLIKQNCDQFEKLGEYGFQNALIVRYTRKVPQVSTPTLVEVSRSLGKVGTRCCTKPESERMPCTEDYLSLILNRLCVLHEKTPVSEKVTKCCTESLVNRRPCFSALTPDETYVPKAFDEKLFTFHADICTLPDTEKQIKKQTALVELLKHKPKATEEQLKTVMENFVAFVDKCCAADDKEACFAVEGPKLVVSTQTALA

## CN(Cc1ccccc1O)CC1CCCN(CCc2ccc(Cl)cc2)C1 (stereo not given)
[1]
  EC50: > 50 µM (active)

## COc1cccc(/C=C2/SC(=S)N(CC(=O)NNC(=O)c3ccccc3O)C2=O)c1
Exodeoxyribonuclease V
  IC50: > 119 µM (inactive)
SUMO-activating enzyme [2]
  IC50: 11.8 µM (active)
Albumin
  IC50: > 94.1 µM (inactive)
SUMO-activating enzyme [3]
  IC50: 29.4 µM (active)
[4]
  IC50: > 119 µM (inactive)

## CCOC(=O)c1cc2sccc2n1CC(=O)N1c2ccccc2CC1C (stereo not given)
Coagulation factor XII
  IC50: > 50 µM (inactive)
[5]
  EC50: 445 µM (active)

## Cc1c(NC(=O)CSc2nc3ccccc3s2)c(=O)n(-c2ccccc2)n1C
Coagulation factor XII
  IC50: > 50 µM (inactive)

## CN(C)C(=O)CSc1nnc([C@@H](N)Cc2ccccc2)o1
Coagulation factor XII
  IC50: > 50 µM (inactive)
Prothrombin
  IC50: > 50 µM (not active)

## COC(=O)Cn1c(=O)c(C)nc2ccccc21
[1]
  EC50: > 50 µM (active)

## COCc1n[nH]c2c1C(c1c(F)cccc1Cl)C(C#N)=C(N)O2 (stereo not given)
[1]
  EC50: > 50 µM (active)

## C=C(C)C(=O)O[C@H]1C/C(C)=C\C(=O)/C=C(\C)[C@H](O)[C@@H]2OC(=O)C(=C)[C@@H]21
[6]
  AC50: 11.1 µM (active)
[7]
  EC50: 8.1 µM (active)
[8]
  CC50: 3.71 µM (active)
[9]
  AC50: 6.81 µM (active)
[10]
  AC50: 3.02 µM (active)
INS1
  AC50: 8.02 µM (active)
[11]
  IC50: > 80 µM (inactive)
